Values quoted from earlier work, collected in PMC8018653, “Gender-based differences in brain and plasma pharmacokinetics of letrozole in sprague-dawley rats: Application of physiologically-based pharmacokinetic modeling to gain quantitative insights” (PLoS ONE, 2021).

Test system: P-glycoprotein (P-gp)
Settings: cited from earlier work

Question: Which “substrate for the efflux transporter P-glycoprotein (P-gp)” value does the source give for `CC(C)(C#N)c1cc(Cn2cncn2)cc(C(C)(C)C#N)c1` [anastrozole] here?
Answer: substrate
